Test [1] relates to mouse embryo fibroblasts (MEFs). The experiment in a line: H2O2-induced apoptosis (sub-G1 DNA, propidium iodide) in MEFs. The format is cell-based. As to conditions: 10 μM 24 hours, then 1 mM H2O2 18 hours. As to the method:
(§1) Ethanol-fixed cells were stained with propidium iodide and monitored for sub-G1 DNA (upper panels). The percentage (mean±S.E.) of cells with sub-G1 DNA was determined from three separate experiments (lower panels).
(§2) Ethanol-fixed cells were stained with propidium iodide and monitored for sub-G1 DNA by FACScan (Becton-Dickinson) (FIGS. 3A and 3C). The percentage (mean±S.E.) of cells with sub-G1 DNA was determined from three separate experiments (FIGS. 3B and 3D).

The test system is the same in test [2]. The experiment in a line: Mitochondrial transmembrane potential (Rhodamine123 flow cytometry) in MEFs. Format: cell-based. The note with it: 10 μM 24 hours. As to the method: The cells were stained with 50 ng/ml Rhodamine123 for 15 minutes and analyzed by flow cytometry (left panels).
The cells were stained with 50 ng/ml Rhodamine123 (Molecular Probes) for 15 minutes at 37° C. Samples were analyzed by flow cytometry using 488 nm excitation and measurement of emission through a 576/26 (ethidium) bandpass filter (FIGS. 2A and 2B, left panels).

The subject of the next test is U-937 cells. As to the kind of experiment: H2O2-induced apoptosis (sub-G1 DNA, propidium iodide) in U-937 cells. As to conditions: 10 μM 24 hours, then 1 mM H2O2 18 hours. The format is cell-based, human. As to the method: as §1, §2

Molecules are shown by their SMILES.

`Cc1ccc(NC(=O)c2ccc(CN3CCN(C)CC3)cc2)cc1Nc1nccc(-c2cccnc2)n1` [STI571, 4-[(4-Methyl-1-piperazinyl)methyl]-N-[4-methyl-3-[[4-(3-pyridinyl)-2-pyrimidinyl]amino-]-phenyl]benzanide methanesulfonate]: the “decrease of H2O2-induced apoptosis (cells with sub-G1 DNA)” value in test [1] is reported as 50%. For the same molecule, in test [2] (no H2O2), the “effect of STI571 alone on mitochondrial transmembrane potential” value is reported as “no apparent effect”. For the same molecule, the “H2O2-induced decrease in mitochondrial transmembrane potential” value in test [2] (then 1 mM H2O2 6 hours) is given as “substantially inhibited”. Further, the “inhibitory effects on loss of mitochondrial transmembrane potential at longer periods of H2O2 exposure” value in test [2] (then H2O2 18 hours) is “detectable”. The “inhibition of H2O2-induced apoptosis (cells with sub-G1 DNA)” value with U-937 cells is “over 80%”.

Values taken from patent publication US20060128720A1, “Inhibition of cell death responses induced by oxidative stress” (priority 2002, published 2006).
